Assay results: PubChem BioAssay AID1645868 (Buhrlage Lab, Dana-Farber Cancer Institute and Novartis …, 2021)
Calls of active or inactive are those of the source.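 Rule for the calls: active = maximal percent inhibition of the deubiquitinase OTUD3 of at least 30% across the tested doses; inactive = the rest.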

Molecular target: OTU domain-containing protein 3 (Homo sapiens) (UniProt Q5T2D3)
Test: Validation of screening hits, potency titration, in vitro enzymatic, OTU domain-containing protein 3 DUB inhibitors (AID 1645868)
Settings: purified OTUD3, ubiquitin-rhodamine cleavage fluorescence, 2 h

OTU domain-containing protein 3 (Homo sapiens), sequence (Q5T2D3 whole entry, looked up, the tested form may be a part): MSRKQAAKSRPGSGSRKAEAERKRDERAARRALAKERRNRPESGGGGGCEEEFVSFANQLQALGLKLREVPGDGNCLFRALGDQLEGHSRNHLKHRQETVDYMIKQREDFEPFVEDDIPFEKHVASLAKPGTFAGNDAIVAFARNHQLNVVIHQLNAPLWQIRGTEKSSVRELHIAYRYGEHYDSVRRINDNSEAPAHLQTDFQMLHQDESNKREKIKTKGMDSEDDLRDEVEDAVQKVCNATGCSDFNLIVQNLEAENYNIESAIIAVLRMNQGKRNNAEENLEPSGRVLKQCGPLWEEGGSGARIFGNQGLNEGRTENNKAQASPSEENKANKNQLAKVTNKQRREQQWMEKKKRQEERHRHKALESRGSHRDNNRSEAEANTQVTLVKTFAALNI

| Compound | IC50 |
| --- | --- |
| COc1cc(O)c2c(=O)c(-c3ccc(O)cc3)coc2c1 | > 50 µM (inactive) |
| CCC(C(=O)NCc1ccncc1)N(c1cccc(Cl)c1)S(C)(=O)=O (stereo not drawn) | > 50 µM (inactive) |
| Cc1ccccc1N1C(=O)/C(=C\c2cccn2C)c2ccccc2C1=O | > 50 µM (inactive) |
| CC1CCN(Cc2nnc(-c3cn(CC(=O)NC4CCCCC4)c4ccccc34)o2)CC1 | > 50 µM (inactive) |
| O=C(CNc1ccc(F)c(Cl)c1)Nc1ccc2c(c1)OCCO2 | > 50 µM (inactive) |
| Cc1cc(=O)c2c(O)oc(O)c3c(O)cc(=O)c1c32 | 33.9 µM |
| Cc1ccc(NC(=O)c2nnn(-c3ccccc3)n2)cc1F | > 50 µM (inactive) |
| C[C@@]12c3ccc4c(c3C(=O)c3occ(c31)C(O)C[C@H]2O)CCC4=O (stereo partly drawn) | > 50 µM (inactive) |
| O=C(Cc1cccnc1)Nc1ccc(N2CCN(C3CCCCC3)C2=O)nc1 | > 50 µM (inactive) |
| Cc1nc(N2CCCC2)ncc1C(=O)Nc1ccc(F)c(F)c1 | > 50 µM (inactive) |
| Cc1ccc(OCCn2c(=N)n(C(C)C)c3ccccc32)cc1 | > 50 µM (inactive) |
| Nc1nc(OCc2ccccc2)c2[nH]c(/C=C/c3cccs3)nc2n1 | 29 µM |
| O=S(=O)(c1ccc2c(c1)OCCO2)N(Cc1ccccc1)Cc1nnc(-c2ccccc2)o1 | > 50 µM (inactive) |
| Cc1cccc(NC(=O)c2noc3c2CCc2sccc2-3)n1 | > 50 µM (inactive) |
| Cc1ccc(C(C)C)cc1OCCOCCN1CCNCC1 | > 50 µM (inactive) |
| CCCc1nc2sc3c(NCCN4CCOCC4)ncnc3c2c2c1CCC2 | > 50 µM (inactive) |
| COc1ccc(NC(=O)c2nnn(-c3ccccc3)c2C)cc1OC | > 50 µM (inactive) |
| CC(=O)c1cc2c(=O)c3c(C(=O)O)c(O)c(O)cc3oc2c(C(C)=O)c1-c1coc2cc(O)c(O)c(C(=O)O)c2c1=O | 0.369 µM |
| CN1c2ccccc2CN(CC(N)=O)CC1Cc1ccccc1 (stereo not drawn) | > 50 µM (inactive) |
| COc1ccccc1-c1nc2c3c(C)c(C)n(-c4ccc(Br)cn4)c3ncn2n1 | > 50 µM (inactive) |
| Cc1ccc(S(=O)(=O)N(C)C)cc1NC(=O)Cc1ccc(Cl)c(Cl)c1 | > 50 µM (inactive) |
| Cc1cc(NCC2CC2)n2nc(Nc3cc(Cl)ccc3C)nc2n1 | > 50 µM (inactive) |
| CSc1nc2ncc3c(=O)n(CCc4ccccc4)ccc3n2n1 | > 50 µM (inactive) |

| Compound | IC50 |
| --- | --- |
| c1cnc(-c2n[nH]c(C3CCN(C4CCNC4)CC3)n2)cn1 (stereo not drawn) | > 50 µM (inactive) |
| CC(C)(C)C(=O)C1C2C(=O)N(Cc3ccccc3)C(=O)C2C2c3ccccc3C=CN12 (stereo not drawn) | > 50 µM (inactive) |
| O=C(CNC(=O)c1cc2ccccc2[nH]1)Nc1ccc2c(c1)OCCO2 | > 50 µM (inactive) |
| O=C(Nc1ccc2c(c1)OCO2)C1CCN(Cc2nc3ccccc3s2)CC1 | > 50 µM (inactive) |
| CC(=O)c1ccc(Cc2ncc(C(F)(F)F)cc2Cl)s1 | > 50 µM (inactive) |
| Cc1nnc(-c2nnc(NCc3ccc(Cl)cc3)c3ccccc23)o1 | > 50 µM (inactive) |
| CN(C)c1cc(-n2cnc(C(=O)NCc3ccccc3Cl)c2)ncn1 | 30.4 µM |
| CC(C)CC1NC(=O)C2CCCN2C1=O (stereo not drawn) | > 50 µM (inactive) |
| COc1c(Cl)ccc2c(=O)c3c(O)c4c5c(c3oc12)OCO[C@H]5[C@@H](OC)c1cc2c(c(O)c1-4)C(=O)N(C)[C@H](OC)[C@@H]2O | > 50 µM (inactive) |
| CN(C)c1ccc(/C=N/NC(=O)c2ccc(Cl)cc2)cc1 | 24.1 µM |
| CC1CCN(c2nc(F)c3c(c2F)S(=O)(=O)CCN3Cc2cccnc2)CC1 | > 50 µM (inactive) |
| COc1cc(C)c2c(=O)c3c(oc2c1)C(=O)c1c(O)c(OC)cc(O)c1C3=O | 2.76 µM |
| Clc1cncc(Oc2nc(-c3cccnc3)nc3ccccc23)c1 | > 50 µM (inactive) |
| COc1ccc(-c2cc(-c3ccccc3)nc(SCC(N)=O)c2C#N)cc1OC | 10.5 µM |
| CCn1c(SCC(=O)N2c3ccccc3CC2C)nnc1-c1ccc2c(c1)OCCO2 (stereo not drawn) | > 50 µM (inactive) |
| CC(C)CC(=O)Nc1cc(F)c2nc(N3CCOCC3)ccc2c1 | > 50 µM (inactive) |
| CNC(=O)C1CN(C(=O)c2ccc(OC)cc2)CC12CCCC2 (stereo not drawn) | > 50 µM (inactive) |
| CCC(=O)Nc1ccc(-c2nc(Cn3cc(C)cn3)c(C)o2)cc1 | > 50 µM (inactive) |
| O=C(Nc1ncc2c(n1)-c1ccccc1CC2)C1CC1 | 35.9 µM |
| N#Cc1ccc(-c2ccc(OCC(=O)Nc3ccc4c(c3)OCO4)cc2)cc1 | > 50 µM (inactive) |
| COc1cc(COc2ccc3c(C)c(CC(=O)N4CC[C@@]5(O)CCCC[C@H]5C4)c(=O)oc3c2C)cc(OC)c1OC | > 50 µM (inactive) |
| C[C@@H]1OC2=C(C(=O)c3cccc(O)c3C2=O)[C@H](O)[C@@H]1O | 4.45 µM |

Continued, values first:

| IC50 | Compound |
| --- | --- |
| 31.3 µM | COc1ccc(OC)c(NC(=O)Cn2c(=O)n(CC3CCC(C(=O)NCCc4ccccc4)CC3)c(=O)c3ccccc32)c1 (stereo not drawn) |
| 26.4 µM | COc1ccc2nc(NC(=O)C(CC(C)C)NS(=O)(=O)c3ccc4c(c3)CCN4C(C)=O)sc2c1 (stereo not drawn) |
| > 50 µM (inactive) | O=C(Nc1cc(F)c2nc(N3CCCC3)ccc2c1)c1ccco1 |
| > 50 µM (inactive) | Cc1cc(C)c2c(-n3cccc3)c(C(=O)NCCc3ccc(S(N)(=O)=O)cc3)sc2n1 |
| > 50 µM (inactive) | Cc1nn(-c2cccc(F)c2)c2c1c(C)c(CCC(=O)NCc1ccccn1)c(=O)n2C |
| 41.6 µM | Cc1cccc(CNC(=O)C2CCCN(S(=O)(=O)Cc3ccc(F)cc3)C2)c1 (stereo not drawn) |
| > 50 µM (inactive) | Cc1ccc2c(=O)c3c([nH]c2c1C)CCN(CC(=O)NCc1ccccc1)C3 |
| > 50 µM (inactive) | COc1ccc(-c2cc(C(C)=O)c(C)n2CCC(=O)Nc2ccc(OC)cc2OC)cc1 |
| > 50 µM (inactive) | O=C(Nc1ccc(N2CCOCC2)cc1)c1ccc(-c2ccc(N3CCCC3)nn2)cc1 |
| 43.4 µM | CCOc1ccc(-c2nc(C#N)c(N3CCN(C(=O)c4ccccc4C)CC3)o2)cc1 |
| > 50 µM (inactive) | CCOc1ccccc1C(=O)NCC(=O)OC(C(=O)c1c[nH]c2ccccc12)c1ccccc1 (stereo not drawn) |
| > 50 µM (inactive) | CS(=O)(=O)N1CCCc2cc(C(=O)Nc3ccc4c(c3)OCO4)ccc21 |
| 32.8 µM | COc1cccc(OCCCn2c(C(C)NC(=O)c3ccco3)nc3ccccc32)c1 (stereo not drawn) |
| 18.3 µM | COc1ccc(-c2nc(SCC(=O)Nc3ccc(C(C)=O)cc3)n[nH]2)cc1 |
| > 50 µM (inactive) | COc1cc(NC(=O)c2ccc3c(c2)OCO3)ccc1-c1cc2ccccc2oc1=O |
| > 50 µM (inactive) | COc1ccc(CNC(=O)c2[nH]nc3c2CCc2ccccc2-3)cc1 |
| > 50 µM (inactive) | CC(C)(C)c1ccc(Cn2nnc3c(=O)[nH]c(C4CCN(S(=O)(=O)c5ccc(S(=O)(=O)NC6CC6)cc5)CC4)nc32)cc1 |
| > 50 µM (inactive) | O=C(Oc1ccc(-c2cnc3ccccc3n2)cc1)c1ccc(F)cc1 |
| > 50 µM (inactive) | O=S(=O)(c1cccc2cccnc12)N(CCc1ccccc1)C1CCN(CCc2ccc(Cl)cc2)CC1 |
| 32 µM | Cc1cccc(-n2nc(C)c3c2NC(=O)CC3C(=O)c2cc3ccccc3o2)c1 (stereo not drawn) |
| > 50 µM (inactive) | CCc1ccc2[nH]c(=O)c(CN(CCc3ccc(OC)c(OC)c3)C(=O)Nc3ccccc3)cc2c1 |
| > 50 µM (inactive) | O=C(Cn1c(=O)n(CCCC(=O)N2CC=C(c3ccccc3)CC2)c(=O)c2ccccc21)NCCC1=CCCCC1 |
| > 50 µM (inactive) | CCN(c1ccccc1)S(=O)(=O)c1ccc(C(=O)Nc2nc3ccc(F)cc3s2)cc1 |
| > 50 µM (inactive) | CC(C)NS(=O)(=O)c1ccc(OCC(=O)N2CCC(Cc3ccccc3)CC2)cc1 |

| IC50 | Compound |
| --- | --- |
| 30.7 µM | CSc1ccc(CNC(=O)CC2CCN(S(=O)(=O)c3ccc(C)cc3)CC2)cc1 |
| 16.4 µM | COc1ccc(CNC(=O)CN2C(=O)CC(c3ccccc3)=Nc3ccccc32)cc1 |
| 26.2 µM | COc1ccc(C(=O)NCCc2nnc3ccc(SCC(=O)NCc4ccc(F)cc4)nn23)cc1 |
| 10 µM | COc1ccc(Cn2c(=O)[nH]c3cc(C(=O)NCCCN4CCN(c5cccc(Cl)c5)CC4)ccc3c2=O)cc1 |
| > 50 µM (inactive) | Cc1ccc(CN2C(=O)c3cc4ccccc4n3CC2(C)C(=O)NCc2ccccc2)o1 (stereo not drawn) |
| 27.9 µM | O=c1[nH]c(C2CCN(S(=O)(=O)c3ccc(S(=O)(=O)NC4CCCCC4)cc3)CC2)nc2c1nnn2Cc1c(F)cccc1Cl |
| > 50 µM (inactive) | CNc1nc2c(c(=O)n1C)CN(C(=O)Nc1cccc3ccccc13)CC2 |
| > 50 µM (inactive) | COC(=O)C1C(c2ccc(Cl)cc2Cl)C2(C(=O)c3ccccc3C2=O)C2C=Cc3ccccc3N12 (stereo not drawn) |
| > 50 µM (inactive) | O=C(Cn1cc(S(=O)(=O)Cc2ccc(Cl)cc2)c2ccccc21)N1CCCCC1 |
| > 50 µM (inactive) | COc1ccccc1OCc1ccc(C(=O)Nc2ccc(F)cc2C)cc1 |
| > 50 µM (inactive) | O=C(Nc1cc(F)ccc1F)c1ccn(COc2ccc(F)c(Cl)c2)n1 |
| 25.1 µM | Cc1ccc2c(c1)[C@]1(C(=O)N2)[C@@H](C(=O)c2ccccc2)[C@]2(C(=O)Nc3ccccc32)[C@@H]2CCCN21 |
| 22.4 µM | O=C(Cn1c(=O)c2sccc2n(Cc2ccc([N+](=O)[O-])cc2)c1=O)NCCc1ccccc1 |
| 28.6 µM | CCOc1ccc2[nH]c3c(=O)n(CCc4ccc(OC)cc4)cnc3c2c1 |
| > 50 µM (inactive) | COc1cccc(/C=C/C(=O)Nc2ccc(N3CCOCC3)cc2)c1OC |
| > 50 µM (inactive) | COc1ccc(CCn2cnc3c4ccccc4n(C)c3c2=O)cc1OC |
| > 50 µM (inactive) | COc1ccccc1-c1ccc(SCC(=O)Nc2ccc3c(c2)OCCO3)nn1 |
| > 50 µM (inactive) | COc1ccc(NC(=O)CS(=O)(=O)c2[nH]c(-c3ccc(C)cc3)nc2-c2ccccc2)cc1Cl |
| > 50 µM (inactive) | N#Cc1ccccc1Cn1c(=O)n(Cc2ccco2)c(=O)c2ccccc21 |
| > 50 µM (inactive) | c1ccc(CN2CCN(c3nc4ccccc4n4nnnc34)CC2)cc1 |
| > 50 µM (inactive) | Cc1ccc2nnc(-c3ccccc3)c(C(=O)N3CCN(c4ccccn4)CC3)c2c1 |
| > 50 µM (inactive) | CCOc1ccc(-c2ccc3nnc(SCC(=O)Nc4cccc(C(C)=O)c4)n3n2)cc1 |
| > 50 µM (inactive) | COc1ccc(/C=C\c2nccc3c2[nH]c2ccccc23)cc1 |
| 2.67 µM | CCOc1ccc(NC(=O)Cn2c(=O)n(CCCCCC(=O)NCc3ccc(F)cc3)c(=O)c3sccc32)cc1 |
